# From patent US6927223B1, “Use of serotonin agents for adjunct therapy in the treatment of cancer” (priority 2000, dated 2005)
# Entries after “also recorded” stand apart in the source; their conditions may differ.
# How the values were obtained:
# [1] = tested on: metastatic melanoma; settings: single agent; cited from earlier work
# [2] = tested on: B16F10 melanoma cells; settings: cited from earlier work; for tumor lung colonization (wet weight of tumor aggregates) versus saline controls: fluoxetine 12, 16, 20 or 40 mg/m^2, amitriptyline 30, 60 or 75 mg/m^2, from 24 hours after i.v. inoculation; for median survival: tumor cells injected i.v., all groups
# [3] = tested on: 3T3 adipocytes; test: Lipid accumulation in adipocytes differentiated from NIH 3T3 fibroblasts, Oil Red-O staining; assay type: cell-based; settings: 5 μM and 10 μM, 10 days
# Experimental: The relative absorbance was calculated as the ratio of absorbance of each treatment to the absorbance of the nondifferentiated (Ndiff) cells.
# After 10 days the lipid content was determined by staining the cells with Oil Red-O and determining the intensity of the red color in an uv spectrophotometer. Experiments were done in triplicate.
# [4] = tested on: SKMel-28 cells; test: Viability of melanoma cells, crystal violet assay; assay type: cell-based, human; settings: SKMel-28, preliminary data from one study
# Experimental: (§1) Viability was assessed by the crystal violet assay. […] Values are mean±SE for three experiments. […] Values are for one experiment.
# (§2) A375 and SKMel-28 cells were seeded at a density of 20,000 cells in one ml DMEM+10% FBS per well in 24 well plates and cultured for 24 hours. […] The culture plates were removed and the medium from each well was discarded. The cells were fixed with acetic acid:methanol (1:3) for one hour at room temperature. The fixed cells were washed with 80% methanol and stained with crystal violet (0.5%) for one hour. Crystal violet dye is taken up proportionately depending upon the number of cells that are adhered to the plate. Excess dye is removed by washing plates in running distilled water. After the plates were dry, the dye was solubilized in 10% acetic acid. Aliquots of solubilized dye from each well were transferred to a 96 well plate and the absorbance of the color was measured at 585 nm. The effects were compared relative to untreated controls.
# [5] = tested on: A375 melanoma cells; settings: stated jointly for B16BL6 and A375
# [6] = tested on: A375 melanoma cells
# Experimental: as §1, §2
# [7] = 10 mg/kg/day injected i.v. or continuously infused subcutaneously via pump, mice; cited from earlier work
# [8] = tested on: B16BL6 melanoma cells; settings: stated jointly for B16BL6 and A375
# [9] = tested on: B16BL6 melanoma; test: Established subcutaneous B16BL6 melanoma in water- or ethanol-drinking C57BL6 mice: tumor growth, metastasis, body weight, intake, body fat; settings: for Perigonadal Fat (mg ± SE): necropsy; for Carcass Fat (% ± SE): weight of lipid/dry carcass weight x 100
# Experimental: In an effort to approximate the effect of SSRIs on melanomas in clinical situations, administration of the agents began after tumor growth was apparent.
# Fourteen to 16 C57BL6 mice per group were inoculated s.c. with 1×10^6 B16BL6 melanoma cells. […] The test agent and saline control were injected daily subcutaneously (s.c.) into the gluteal region opposite from the site of tumor inoculation, approximately two hours before the dark cycle. […] At 21 days the animals were sacrificed.
# Female C57/BL6 mice consumed either water or 20% w/v ethanol ad libitum for six weeks prior to inoculation with of melanoma cells. The mice were injected with 1×10^6 tumor cells subcutaneously (s.c.) into the dorsal hip.
# Two weeks after inoculation, the animals were divided into four treatment groups: (1) water drinking or (2) ethanol drinking, both groups injected with saline control for seven days; (3) water drinking or (4) ethanol drinking. […] Tumor growth was measured with calipers on days 14, 16, 18, and 20. Mice were killed on day 21 and necropsied.
# Perigonadal and carcass fat were determined. Body weight, food consumption, and fluid-consumption were measured continually throughout the experiment.
# Perigonadal fat, a measure of body fat content, was removed at necropsy and weighed. Mice were then dehydrated at 60° C. until they reached constant weight. They were then pulverized in a Bel-Art Micro-Mill. The whole carcass was transferred to a soxhlet extractor and the lipid was extracted with chloroform:methanol (2:1) for 24 hours. The extraction cone containing the carcass was removed, air-dried to evaporate the chloroform and methanol, and then weighed. The difference in weight was the weight of carcass lipid. The percentage of carcass lipid was calculated as the weight of lipid/dry carcass weight×100.
# [10] = Ethanol-drinking mice (20% w/v), 10 mg/kg/day s.c. for 7 days
# [11] = Water-drinking mice, 10 mg/kg/day s.c. for 7 days
structure (smiles),measurement,setting,value
"CN(C)/N=N/c1[nH]cnc1C(N)=O [DTIC, dimethyltriazenoimidazole carboxymide]",share of cases of metastatic melanoma with partial remission,[1],about one-quarter
CN(C)CCC=C1c2ccccc2CCc2ccccc21 [amitriptyline],tumor lung colonization (wet weight of tumor aggregates) versus saline controls,[2],increased tumor lung colonization
same,median survival,[2],17 days
CNCCC(Oc1ccc(C(F)(F)F)cc1)c1ccccc1 (stereo not shown) [fluoxetine],lipid content of differentiated adipocytes,[3],increases lipid content
same,major toxicity range,[4],8 to 16 µM
same,fluoxetine level that completely inhibited the incorporation of isotope,[5],about 30 uM
same,cell viability at 16 μM,"[6]; A375, 16 μM",almost all the cells were dead
same,concentration at which drug toxicity is evident,"[6]; A375, crystal violet",4 µM
same,concentration range of more pronounced toxicity,"[6]; A375, crystal violet",8 to 16 µM
same,time within which toxicity is exerted,"[6]; A375 and SKMel-28, crystal violet",≤ 24 h
same,approximate serum level,[7],100 to 280 ng/mL
same,tumor lung colonization (wet weight of tumor aggregates) versus saline controls,[2],increased tumor lung colonization
same,median survival,[2],17 days
same,fluoxetine level that completely inhibited the incorporation of isotope,[8],about 30 uM
same,tumor growth rate,"[9]; 10 mg/kg/day s.c. for 7 days, irrespective of water or ethanol consumption",significantly decreased
same,decrease in wet weight of tumors at necropsy versus saline-injected mice,"[9]; 10 mg/kg/day s.c. for 7 days, necropsy day 21",greater than 2 fold
same,Perigonadal Fat (mg ± SE),[9]; [10],192 ± 53 mg
same,Carcass Fat (% ± SE),[9]; [10],31.7 ± 2.3 %
same,Perigonadal Fat (mg ± SE),[9]; [11],53 ± 25 mg
same,Carcass Fat (% ± SE),[9]; [11],25.8 ± 1.4%
same,tumor volume,"[9]; daily s.c. injection from day 14 to day 21, water- and ethanol-consuming mice",decreased tumor volume
same,"corrected body weight (total body weight minus tumor wet weight), test versus control animals",[9]; day 21,nearly identical
same,toxicity of the effective dose,"[9]; mouse, in vivo",non toxic
same,number and frequency of metastases,"[9]; subcutaneous B16BL6 tumors, 10 mg/kg/day s.c. for 7 days, 10 mg/kg/day",inhibit metastasis; also recorded: greatly reduced
same,food intake,"[9]; water-drinking mice, experimental period",does not alter food intake
